Measurements published in the supplement of paper PMC13380429.

Experiments:
Details in all cases: 72 h
[1] = test system: Caco-2; assay: cell viability relative to DMSO; higher = less toxic
[2] = test system: Calu-3; assay: as above
[3] = test system: HepG2; assay: as above
[4] = test system: U2OS; assay: as above
[5] = test system: Vero E6; assay: as above
[6] = test system: Caco-2; assay: relative viability EC50 (midpoint between 100% and the lowest measured viability); higher = less toxic
[7] = test system: Calu-3; assay: as above
[8] = test system: HepG2; assay: as above
[9] = test system: U2OS; assay: as above
[10] = test system: Vero E6; assay: as above
[11] = test system: Caco-2; assay: drug sensitivity score (DSS) for viability; higher = more toxic; extreme values may be limits of the assay
[12] = test system: Calu-3; assay: as above
[13] = test system: HepG2; assay: as above
[14] = test system: U2OS; assay: as above
[15] = test system: Vero E6; assay: as above

Structure (SMILES)	cell viability ([1]; 1 nM) [%]	cell viability ([1]; 10 nM) [%]	cell viability ([1]; 100 nM) [%]	cell viability ([1]; 1000 nM) [%]	cell viability ([1]; 10000 nM) [%]	cell viability ([2]; 1 nM) [%]	cell viability ([2]; 10 nM) [%]	cell viability ([2]; 100 nM) [%]	cell viability ([2]; 1000 nM) [%]	cell viability ([2]; 10000 nM) [%]	cell viability ([3]; 1 nM) [%]	cell viability ([3]; 10 nM) [%]	cell viability ([3]; 100 nM) [%]	cell viability ([3]; 1000 nM) [%]	cell viability ([3]; 10000 nM) [%]	cell viability ([4]; 1 nM) [%]	cell viability ([4]; 10 nM) [%]	cell viability ([4]; 100 nM) [%]	cell viability ([4]; 1000 nM) [%]	cell viability ([4]; 10000 nM) [%]	cell viability ([5]; 1 nM) [%]	cell viability ([5]; 10 nM) [%]	cell viability ([5]; 100 nM) [%]	cell viability ([5]; 1000 nM) [%]	cell viability ([5]; 10000 nM) [%]	relative viability EC50 [6] [µM]	relative viability EC50 [7] [µM]	relative viability EC50 [8] [µM]	relative viability EC50 [9] [µM]	relative viability EC50 [10] [µM]	drug sensitivity score [11]	drug sensitivity score [12]	drug sensitivity score [13]	drug sensitivity score [14]	drug sensitivity score [15]
Cc1ccc2c(-c3ccccc3)nc(=O)n(C(C)C)c2c1 [proquazone]	86.9	89.3	81.4	103	99.8	92.9	94.9	104	105	117	96.7	109	102	102	110	99.7	94.5	96.2	92.4	105	93.4	92.4	89.3	105	103	> 10	> 10	> 10	> 10	> 10	0	0	0	0	0
CCOC(=O)[C@H](CCc1ccccc1)N[C@@H](C)C(=O)N1Cc2ccccc2C[C@H]1C(=O)O [quinapril]	95.7	99.6	92.1	96.3	88.5	95.2	102	103	97	96.5	106	98.9	110	93.6	94.7	98.1	100	95.1	101	93.9	104	97.9	102	90.4	97.8	> 10	> 10	> 10	> 10	> 10	0	0	0	0	0
